In brackets after ≈: the same amount, converted by molar mass.
Columns and labels:
[1] = test system: Mycobacterium tuberculosis; assay: Antimicrobial activity against Mycobacterium tuberculosis H37Rv ATCC 27294 assessed as growth inhibition after 5 days by microdilution method; assay type: functional; settings: H37Rv ATCC 27294, 120 h
[2] = test system: Mycobacterium tuberculosis; assay: Bactericidal activity against Mycobacterium tuberculosis H37Rv ATCC 27294 after 5 days by microdilution method; assay type: functional; settings: H37Rv ATCC 27294, 120 h
[3] = test system: Mycobacterium tuberculosis; assay: Antimicrobial activity against clinical isolate Mycobacterium tuberculosis JAL assessed as growth inhibition after 7 days by turbidometry; assay type: functional; settings: 168 h
[4] = test system: Mycobacterium tuberculosis; assay: Antimicrobial activity against clinical isolate Mycobacterium tuberculosis ATCC35811 assessed as growth inhibition after 7 days by turbidometry; assay type: functional; settings: ATCC35811, 168 h
[5] = test system: Mycobacterium tuberculosis; assay: Antimicrobial activity against clinical isolate Mycobacterium tuberculosis ATCC25618 assessed as growth inhibition after 7 days by turbidometry; assay type: functional; settings: ATCC25618, 168 h
[6] = test system: Mycobacterium tuberculosis; assay: Antimicrobial activity against clinical isolate Mycobacterium tuberculosis Erdman assessed as growth inhibition after 7 days by turbidometry; assay type: functional; settings: 168 h
[7] = test system: Mycobacterium tuberculosis; assay: Antimicrobial activity against clinical isolate Mycobacterium tuberculosis DKU220 assessed as growth inhibition after 7 days by turbidometry; assay type: functional; settings: DKU220, 168 h
[8] = test system: Mycobacterium tuberculosis; assay: Antimicrobial activity against clinical isolate Mycobacterium tuberculosis DKU76 assessed as growth inhibition after 7 days by turbidometry; assay type: functional; settings: DKU76, 168 h
[9] = test system: Mycobacterium tuberculosis; assay: Antimicrobial activity against clinical isolate Mycobacterium tuberculosis Beijing assessed as growth inhibition after 7 days by turbidometry; assay type: functional; settings: 168 h
[10] = test system: Mycobacterium tuberculosis; assay: Antimicrobial activity against clinical isolate Mycobacterium tuberculosis DKU211 assessed as growth inhibition after 7 days by turbidometry; assay type: functional; settings: DKU211, 168 h
[11] = test system: Mycobacterium tuberculosis; assay: Antimicrobial activity against clinical isolate Mycobacterium tuberculosis H37Rv ATCC 27294 assessed as growth inhibition after 7 days by turbidometry; assay type: functional; settings: H37Rv ATCC 27294, 168 h
[12] = test system: Mycobacterium tuberculosis; assay: Antimicrobial activity against clinical isolate Mycobacterium tuberculosis Harlingen assessed as growth inhibition after 7 days by turbidometry; assay type: functional; settings: 168 h
[13] = test system: Mycobacterium tuberculosis; assay: Antimicrobial activity against clinical isolate Mycobacterium tuberculosis DKU97A assessed as growth inhibition after 7 days by turbidometry; assay type: functional; settings: 168 h
[14] = target: T1, Enoyl-[acyl-carrier-protein] reductase [NADH] (Mycobacterium tuberculosis, UniProt P9WGR1); assay: Inhibition of Mycobacterium tuberculosis InhA using NADH and dodecyl coA substrate by LC-MS/MS method
T1 sequence (P9WGR1 whole entry): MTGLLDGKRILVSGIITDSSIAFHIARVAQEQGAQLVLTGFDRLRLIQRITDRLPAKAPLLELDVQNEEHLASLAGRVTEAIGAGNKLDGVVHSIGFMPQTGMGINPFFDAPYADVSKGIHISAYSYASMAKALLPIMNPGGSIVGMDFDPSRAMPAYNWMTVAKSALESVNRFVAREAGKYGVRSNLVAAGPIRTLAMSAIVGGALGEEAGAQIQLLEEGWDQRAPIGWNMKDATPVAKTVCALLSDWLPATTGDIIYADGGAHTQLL

[15] = Solubility of the compound; assay type: physicochemical
[16] = test system: Mycobacterium tuberculosis; assay: Ratio of MBC for Mycobacterium tuberculosis H37Rv ATCC 27294 to MIC for Mycobacterium tuberculosis H37Rv ATCC 27294; assay type: functional

Q: With `CCCc1cc(-c2nc(-c3ccc(Cl)cc3)c(C)s2)ccn1` as the compound, how does the MIC80 [1] read?
A: The MIC80 was 4 µg/mL (≈ 12.2 µM).

Q: Which MIC80 [1] does the source give for `CCCc1cc(-c2nc(-c3cccnc3)cs2)ccn1` here?
A: Its MIC80 is 1.6 µg/mL (≈ 5.69 µM).

Q: Which MIC80 [1] does the source give for `CCCc1cc(-c2nsc(-c3ccnc(CCC)c3)n2)ccn1` here?
A: The MIC80 was 32 µg/mL (≈ 98.6 µM).

Q: For `CCCc1cc(-c2nc(-c3ccc(Cl)cc3)c(C(=O)OCC)s2)ccn1`, which MIC80 [1] is on record?
A: The MIC80 was > 32 µg/mL.

Q: Which MIC80 [1] does the source give for `Clc1ccc(-c2csc(-c3ccnc(N4CCOCC4)c3)n2)cc1` here?
A: Its MIC80 is > 32 µg/mL.

Q: Which MIC80 [1] does the source give for `CCCc1cc(-c2nc(-c3ccc(F)cc3)cs2)ccn1` here?
A: Its MIC80 is 1 µg/mL (≈ 3.35 µM).

Q: For `CN1CCC(c2nc(-c3ccc(Cl)cc3)cs2)CC1`, which MIC80 [1] is on record?
A: The MIC80 was > 32 µg/mL.

Q: With `CCc1cc(-c2ncc(-c3ccnc(OC)c3)s2)ccn1` as the compound, how does the MBC [2] read?
A: The MBC was 0.5 µg/mL (≈ 1.68 µM).

Q: Which MIC80 [3] does the source give for `CO[C@H]1/C=C/O[C@@]2(C)Oc3c(C)c(O)c4c(O)c(c(/C=N/N5CCN(C)CC5)c(O)c4c3C2=O)NC(=O)/C(C)=C\C=C\[C@H](C)[C@H](O)[C@@H](C)[C@@H](O)[C@@H](C)[C@H](OC(C)=O)[C@@H]1C` [RIFAMPIN] here?
A: The MIC80 was 0.003 µg/mL (≈ 0.00365 µM).

Q: What about the MIC80 [4] of the same compound?
A: Its MIC80 is 0.003 µg/mL (≈ 0.00365 µM).

Q: And the MIC80 [5]?
A: Its MIC80 is 0.003 µg/mL (≈ 0.00365 µM).

Q: And the MIC80 [6]?
A: The MIC80 was 0.003 µg/mL (≈ 0.00365 µM).

Q: And the MIC80 [7]?
A: Its MIC80 is 0.003 µg/mL (≈ 0.00365 µM).

Q: And the MIC80 [8]?
A: Its MIC80 is 0.003 µg/mL (≈ 0.00365 µM).

Q: What about the MIC80 [9] of the same compound?
A: The MIC80 was 0.003 µg/mL (≈ 0.00365 µM).

Q: What about the MIC80 [10] of the same compound?
A: Its MIC80 is 0.003 µg/mL (≈ 0.00365 µM).

Q: And the MIC80 [11]?
A: Its MIC80 is 0.007 µg/mL (≈ 0.00851 µM).

Q: What about the MIC80 [12] of the same compound?
A: The MIC80 was 0.003 µg/mL (≈ 0.00365 µM).

Q: What about the MIC80 [13] of the same compound?
A: Its MIC80 is 0.003 µg/mL (≈ 0.00365 µM).

Q: And the IC50 [14]?
A: The IC50 was 30 nM.

Q: Which results are given for `CCCc1cc(-c2nc(-c3ccnc(OCC)c3)cs2)ccn1`?
A: MIC80 [1]: 0.1 µg/mL (≈ 0.307 µM); MBC [2]: 0.1 µg/mL (≈ 0.307 µM)

Q: With `CCCc1cc(-c2nc(-c3ccc(OCC4CC4)cc3)cs2)ccn1` as the compound, how does the MIC80 [3] read?
A: The MIC80 was 0.5 µg/mL (≈ 1.43 µM).

Q: What about the MIC80 [4] of the same compound?
A: Its MIC80 is 1 µg/mL (≈ 2.85 µM).

Q: And the MIC80 [5]?
A: Its MIC80 is 0.5 µg/mL (≈ 1.43 µM).

Q: What about the MIC80 [6] of the same compound?
A: Its MIC80 is 0.5 µg/mL (≈ 1.43 µM).

Q: And the MIC80 [7]?
A: Its MIC80 is 0.5 µg/mL (≈ 1.43 µM).

Q: And the MIC80 [1]?
A: The MIC80 was 0.25 µg/mL (≈ 0.713 µM).

Q: And the MIC80 [8]?
A: The MIC80 was 1 µg/mL (≈ 2.85 µM).

Q: What about the MIC80 [9] of the same compound?
A: The MIC80 was 0.25 µg/mL (≈ 0.713 µM).

Q: And the MIC80 [10]?
A: Its MIC80 is 0.5 µg/mL (≈ 1.43 µM).

Q: What about the MIC80 [11] of the same compound?
A: The MIC80 was 0.5 µg/mL (≈ 1.43 µM).

Q: And the MIC80 [12]?
A: The MIC80 was 0.25 µg/mL (≈ 0.713 µM).

Q: What about the MIC80 [13] of the same compound?
A: Its MIC80 is 0.5 µg/mL (≈ 1.43 µM).

Q: With `CCCc1cc(-c2nc(-c3ccccn3)cs2)ccn1` as the compound, how does the MIC80 [1] read?
A: The MIC80 was 4 µg/mL (≈ 14.2 µM).

Q: With `CCCc1cc(-c2nc(-c3ccc(OCCOC)cc3)cs2)ccn1` as the compound, how does the MIC80 [1] read?
A: The MIC80 was 1 µg/mL (≈ 2.82 µM).

Q: Which results are given for `CCCc1cc(-c2nc(-c3ccc(C)cc3)cs2)ccn1` [FATOSTATIN]?
A: MIC80 [1]: 1 µg/mL (≈ 3.4 µM); solubility [15]: 0.4 µM (≈ 0.118 µg/mL)

Q: Which results are given for `CCCc1cc(-c2nc(-c3ccc(OCCN4CCCC4)cc3)cs2)ccn1`?
A: Ratio [16]: 1; MIC80 [1]: 4.9 µg/mL (≈ 12.5 µM); solubility [15]: 155 µM (≈ 60.8 µg/mL); MBC [2]: 4.9 µg/mL (≈ 12.5 µM)

Q: For `Clc1ccc(-c2csc(-c3ccnc(C4CC4)c3)n2)cc1`, which MIC80 [1] is on record?
A: Its MIC80 is 4 µg/mL (≈ 12.8 µM).

Q: Which results are given for `CCCc1cc(-c2nc(-c3ccc(OCCN4CCOCC4)cc3)cs2)ccn1`?
A: MIC80 [3]: 1 µg/mL (≈ 2.44 µM); MIC80 [4]: 1 µg/mL (≈ 2.44 µM); MIC80 [5]: 2 µg/mL (≈ 4.88 µM); Ratio [16]: 2; MIC80 [6]: 1 µg/mL (≈ 2.44 µM); MIC80 [7]: 2 µg/mL (≈ 4.88 µM); MIC80 [1]: 1 µg/mL (≈ 2.44 µM); solubility [15]: 29.8 µM (≈ 12.2 µg/mL); MIC80 [8]: 1 µg/mL (≈ 2.44 µM); MIC80 [9]: 1 µg/mL (≈ 2.44 µM); MIC80 [10]: 1 µg/mL (≈ 2.44 µM); MIC80 [11]: 2 µg/mL (≈ 4.88 µM); MIC80 [12]: 0.5 µg/mL (≈ 1.22 µM); MBC [2]: 5.2 µg/mL (≈ 12.7 µM); MIC80 [13]: 1 µg/mL (≈ 2.44 µM)

Q: Which results are given for `CCCc1cc(-c2nc(-c3cccc(OC)c3)cs2)ccn1`?
A: MIC80 [3]: 0.5 µg/mL (≈ 1.61 µM); MIC80 [4]: 0.5 µg/mL (≈ 1.61 µM); MIC80 [5]: 0.25 µg/mL (≈ 0.805 µM); MIC80 [6]: 0.25 µg/mL (≈ 0.805 µM); MIC80 [7]: 1 µg/mL (≈ 3.22 µM); MIC80 [1]: 0.5 µg/mL (≈ 1.61 µM); MIC80 [8]: 1 µg/mL (≈ 3.22 µM); MIC80 [9]: 0.13 µg/mL (≈ 0.419 µM); MIC80 [10]: 1 µg/mL (≈ 3.22 µM); MIC80 [11]: 0.25 µg/mL (≈ 0.805 µM); MIC80 [12]: 0.13 µg/mL (≈ 0.419 µM); MIC80 [13]: 0.5 µg/mL (≈ 1.61 µM)

Q: Which MIC80 [1] does the source give for `CCCc1cc(-c2nc(-c3ccnc(O[C@H]4CCOC4)c3)cs2)ccn1` here?
A: Its MIC80 is 2 µg/mL (≈ 5.44 µM).

Q: Which MIC80 [1] does the source give for `CCNc1cc(-c2nc(-c3ccc(Cl)cc3)cs2)ccn1` here?
A: The MIC80 was 8 µg/mL (≈ 25.3 µM).

Q: For `CCCc1cc(-c2nc(-c3ccccc3C(F)(F)F)cs2)ccn1`, which MIC80 [1] is on record?
A: Its MIC80 is > 32 µg/mL.

Q: With `CCCc1cc(-c2nc(-c3ccnc(OC)c3)cs2)ccn1` as the compound, how does the MIC80 [1] read?
A: The MIC80 was 0.2 µg/mL (≈ 0.642 µM).

Q: What does the source list for `NNC(=O)c1ccncc1` [ISONIAZID]?
A: MIC80 [3]: 0.06 µg/mL (≈ 0.438 µM); MIC80 [4]: 0.06 µg/mL (≈ 0.438 µM); MIC80 [5]: 0.06 µg/mL (≈ 0.438 µM); MIC80 [6]: 0.06 µg/mL (≈ 0.438 µM); MIC80 [7]: 0.06 µg/mL (≈ 0.438 µM); MIC80 [8]: 0.06 µg/mL (≈ 0.438 µM); MIC80 [9]: 0.06 µg/mL (≈ 0.438 µM); MIC80 [10]: 0.06 µg/mL (≈ 0.438 µM); MIC80 [11]: 0.06 µg/mL (≈ 0.438 µM); MIC80 [12]: 0.06 µg/mL (≈ 0.438 µM); MIC80 [13]: 0.06 µg/mL (≈ 0.438 µM)

Q: Which MIC80 [1] does the source give for `CCCc1cc(-c2nc(-c3ccccc3OC)cs2)ccn1` here?
A: The MIC80 was 1 µg/mL (≈ 3.22 µM).
